Measurements taken from article PMC7265341, “Quantifying CDK inhibitor selectivity in live cells” (Nature Communications, 2020).
Read-outs that look alike come from different tables or passages of the source.

Assays:
[1] = biological target: CDK13/Cyclin K (Homo sapiens, UniProt Q14004); experiment: NanoBRET live-cell target engagement, CDK13-NanoLuc/Cyclin K in HEK-293; format: binding; details: 10µM, read-out: CDK13/K Inhibition at 10µM (%)
[2] = biological target: CDK17/Cyclin Y (Homo sapiens, UniProt Q00537); experiment: NanoBRET live-cell target engagement, CDK17-NanoLuc/Cyclin Y in HEK-293; format: binding; details: for IC50: read-out: CDK17/Y IC50; for inhibition at 10 µM: read-out: CDK17/Y Inhibition at 10µM (%), 10µM
[3] = biological target: CDK5/CDK5R1 (Homo sapiens, UniProt Q00535); experiment: NanoBRET live-cell target engagement, CDK5-NanoLuc/CDK5R1 in HEK-293; format: binding; details: for inhibition at 10 µM: read-out: CDK5/CDK5R1 Inhibition at 10µM (%); for IC50: read-out: CDK5/CDK5R1 IC50
[4] = biological target: CDK16/Cyclin Y (Homo sapiens, UniProt Q00536); experiment: NanoBRET live-cell target engagement, CDK16-NanoLuc/Cyclin Y in HEK-293; format: binding; details: for IC50: read-out: CDK16/Y IC50; for inhibition at 10 µM: read-out: CDK16/Y Inhibition at 10µM (%), 10µM
[5] = biological target: CDK10/Cyclin L2 (Homo sapiens, UniProt Q15131); experiment: NanoBRET live-cell target engagement, CDK10-NanoLuc/Cyclin L2 in HEK-293; details: for inhibition at 10 µM: read-out: CDK10/L2 Inhibition at 10µM (%), 10µM
[6] = biological target: CDK8/Cyclin C (Homo sapiens, UniProt P49336); experiment: NanoBRET live-cell target engagement, NanoLuc-CDK8/Cyclin C in HEK-293; format: binding; details: 10µM, read-out: CDK8/C Inhibition at 10µM (%)
[7] = biological target: CDK20/Cyclin H (Homo sapiens, UniProt Q8IZL9); experiment: NanoBRET live-cell target engagement, NanoLuc-CDK20/Cyclin H in HEK-293; format: binding; details: read-out: CDK20/H Inhibition at 10µM (%), 10µM
[8] = biological target: CDK18/Cyclin Y (Homo sapiens, UniProt Q07002); experiment: NanoBRET live-cell target engagement, CDK18-NanoLuc/Cyclin Y in HEK-293; format: binding; details: for IC50: read-out: CDK18/Y IC50; for inhibition at 10 µM: read-out: CDK18/Y Inhibition at 10µM (%), 10µM
[9] = biological target: CDK19/Cyclin C (Homo sapiens, UniProt Q9BWU1); experiment: NanoBRET live-cell target engagement, NanoLuc-CDK19/Cyclin C in HEK-293; details: read-out: CDK19/C Inhibition at 10µM (%), 10µM
[10] = biological target: CDK11B/Cyclin L2 (Homo sapiens, UniProt P21127); experiment: NanoBRET live-cell target engagement, CDK11B-NanoLuc/Cyclin L2 in HEK-293; format: binding; details: read-out: CDK11b/L2 Inhibition at 10µM (%), 10µM
[11] = biological target: CDK12/Cyclin K (Homo sapiens, UniProt Q9NYV4); experiment: NanoBRET live-cell target engagement, CDK12-NanoLuc/Cyclin K in HEK-293; format: binding; details: read-out: CDK12/K Inhibition at 10µM (%), 10µM
[12] = biological target: CDK1/Cyclin E1 (Homo sapiens, UniProt P06493); experiment: NanoBRET live-cell target engagement, CDK1-NanoLuc/Cyclin E1 in HEK-293; format: binding; details: for inhibition at 10 µM: read-out: CDK1/E1 Inhibition at 10µM (%); for IC50: read-out: CDK1/E1 IC50
[13] = biological target: CDK7 (Homo sapiens, UniProt P50613); experiment: NanoBRET live-cell target engagement, NanoLuc-CDK7 in HEK-293; format: binding; details: for inhibition at 10 µM: read-out: CDK7 Inhibition at 10µM (%); for CDK7 Occupancy (%): Panel A
Sequence of CDK7 (P50613 whole entry): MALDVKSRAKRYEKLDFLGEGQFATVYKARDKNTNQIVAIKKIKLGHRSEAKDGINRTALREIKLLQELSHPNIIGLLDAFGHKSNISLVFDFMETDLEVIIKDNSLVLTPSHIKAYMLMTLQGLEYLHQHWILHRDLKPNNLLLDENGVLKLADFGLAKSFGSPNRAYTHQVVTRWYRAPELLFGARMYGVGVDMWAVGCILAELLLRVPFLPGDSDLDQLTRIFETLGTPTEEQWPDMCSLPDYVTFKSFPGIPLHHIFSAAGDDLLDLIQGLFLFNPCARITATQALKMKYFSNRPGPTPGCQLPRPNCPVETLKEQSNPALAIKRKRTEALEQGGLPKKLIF

Sequence of CDK5/CDK5R1 (Q00535 whole entry): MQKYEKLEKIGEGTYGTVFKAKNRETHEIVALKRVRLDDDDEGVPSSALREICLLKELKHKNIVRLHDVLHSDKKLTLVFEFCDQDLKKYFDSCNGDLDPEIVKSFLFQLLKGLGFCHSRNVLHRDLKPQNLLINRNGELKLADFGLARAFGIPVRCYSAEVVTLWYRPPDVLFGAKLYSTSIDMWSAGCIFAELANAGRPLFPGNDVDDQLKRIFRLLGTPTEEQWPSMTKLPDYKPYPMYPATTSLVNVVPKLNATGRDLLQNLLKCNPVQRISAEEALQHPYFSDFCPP
Sequence of CDK5/CDK5R1 (Q15078 whole entry partner): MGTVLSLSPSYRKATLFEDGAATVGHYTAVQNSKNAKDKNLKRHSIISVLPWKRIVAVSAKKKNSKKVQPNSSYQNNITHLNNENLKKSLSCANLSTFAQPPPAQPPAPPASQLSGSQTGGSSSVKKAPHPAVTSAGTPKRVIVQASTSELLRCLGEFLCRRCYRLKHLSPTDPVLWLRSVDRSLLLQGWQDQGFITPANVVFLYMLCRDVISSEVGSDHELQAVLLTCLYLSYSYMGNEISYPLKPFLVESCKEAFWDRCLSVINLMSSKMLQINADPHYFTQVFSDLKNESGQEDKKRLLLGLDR
Sequence of CDK12/Cyclin K (Q9NYV4 1-1481 isoform Q9NYV4-2): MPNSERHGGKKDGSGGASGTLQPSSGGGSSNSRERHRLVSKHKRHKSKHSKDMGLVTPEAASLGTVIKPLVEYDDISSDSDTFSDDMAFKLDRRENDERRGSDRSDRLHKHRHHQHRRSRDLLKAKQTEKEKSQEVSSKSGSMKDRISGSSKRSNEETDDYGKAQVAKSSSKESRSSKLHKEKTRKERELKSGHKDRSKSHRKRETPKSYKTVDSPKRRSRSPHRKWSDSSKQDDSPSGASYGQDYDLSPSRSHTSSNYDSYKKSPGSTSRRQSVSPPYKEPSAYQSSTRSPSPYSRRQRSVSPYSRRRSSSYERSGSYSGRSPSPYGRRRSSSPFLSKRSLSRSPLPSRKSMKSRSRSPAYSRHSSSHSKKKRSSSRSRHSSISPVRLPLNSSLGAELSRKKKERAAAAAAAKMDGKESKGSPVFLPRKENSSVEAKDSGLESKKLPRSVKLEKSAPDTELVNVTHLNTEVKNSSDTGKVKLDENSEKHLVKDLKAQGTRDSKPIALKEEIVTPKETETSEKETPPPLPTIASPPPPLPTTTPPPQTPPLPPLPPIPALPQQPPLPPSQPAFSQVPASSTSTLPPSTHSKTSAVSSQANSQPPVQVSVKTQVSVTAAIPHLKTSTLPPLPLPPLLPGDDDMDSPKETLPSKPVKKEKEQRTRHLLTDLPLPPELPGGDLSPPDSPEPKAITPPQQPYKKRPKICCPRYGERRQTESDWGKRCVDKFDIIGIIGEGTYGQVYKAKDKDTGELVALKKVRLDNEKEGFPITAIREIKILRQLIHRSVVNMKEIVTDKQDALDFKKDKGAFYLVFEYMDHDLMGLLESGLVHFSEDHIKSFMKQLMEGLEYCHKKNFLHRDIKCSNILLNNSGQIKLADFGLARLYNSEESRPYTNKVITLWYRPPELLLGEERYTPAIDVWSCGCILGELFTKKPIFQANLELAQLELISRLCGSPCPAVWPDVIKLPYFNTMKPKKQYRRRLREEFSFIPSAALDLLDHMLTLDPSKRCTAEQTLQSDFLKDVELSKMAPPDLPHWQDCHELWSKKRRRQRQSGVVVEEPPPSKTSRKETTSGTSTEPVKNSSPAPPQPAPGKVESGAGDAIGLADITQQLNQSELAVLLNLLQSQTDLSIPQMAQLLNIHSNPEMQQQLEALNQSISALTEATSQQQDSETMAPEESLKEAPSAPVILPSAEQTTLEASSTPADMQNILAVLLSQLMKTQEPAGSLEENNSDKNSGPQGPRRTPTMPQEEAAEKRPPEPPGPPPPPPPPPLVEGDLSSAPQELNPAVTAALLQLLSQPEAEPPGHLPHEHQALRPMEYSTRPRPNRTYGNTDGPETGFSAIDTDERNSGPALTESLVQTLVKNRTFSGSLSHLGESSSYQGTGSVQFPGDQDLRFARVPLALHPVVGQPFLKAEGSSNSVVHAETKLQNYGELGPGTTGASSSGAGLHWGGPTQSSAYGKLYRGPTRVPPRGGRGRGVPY
Sequence of CDK12/Cyclin K (O75909 whole entry partner): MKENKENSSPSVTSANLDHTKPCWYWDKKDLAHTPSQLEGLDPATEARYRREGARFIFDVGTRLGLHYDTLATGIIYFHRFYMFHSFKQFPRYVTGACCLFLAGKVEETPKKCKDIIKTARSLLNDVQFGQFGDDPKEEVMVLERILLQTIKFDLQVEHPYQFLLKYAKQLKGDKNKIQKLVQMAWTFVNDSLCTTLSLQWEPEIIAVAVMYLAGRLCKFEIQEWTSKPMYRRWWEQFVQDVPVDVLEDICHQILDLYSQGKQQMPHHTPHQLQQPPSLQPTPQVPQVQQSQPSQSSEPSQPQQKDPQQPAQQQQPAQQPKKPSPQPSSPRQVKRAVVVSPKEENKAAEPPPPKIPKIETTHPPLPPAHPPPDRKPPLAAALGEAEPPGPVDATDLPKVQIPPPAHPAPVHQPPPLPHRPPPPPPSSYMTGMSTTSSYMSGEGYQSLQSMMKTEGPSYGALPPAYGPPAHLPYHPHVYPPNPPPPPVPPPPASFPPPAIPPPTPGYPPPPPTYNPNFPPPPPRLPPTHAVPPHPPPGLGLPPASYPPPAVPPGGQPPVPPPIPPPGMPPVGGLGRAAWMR
Sequence of CDK11B/Cyclin L2 (P21127 1-782 isoform P21127-2): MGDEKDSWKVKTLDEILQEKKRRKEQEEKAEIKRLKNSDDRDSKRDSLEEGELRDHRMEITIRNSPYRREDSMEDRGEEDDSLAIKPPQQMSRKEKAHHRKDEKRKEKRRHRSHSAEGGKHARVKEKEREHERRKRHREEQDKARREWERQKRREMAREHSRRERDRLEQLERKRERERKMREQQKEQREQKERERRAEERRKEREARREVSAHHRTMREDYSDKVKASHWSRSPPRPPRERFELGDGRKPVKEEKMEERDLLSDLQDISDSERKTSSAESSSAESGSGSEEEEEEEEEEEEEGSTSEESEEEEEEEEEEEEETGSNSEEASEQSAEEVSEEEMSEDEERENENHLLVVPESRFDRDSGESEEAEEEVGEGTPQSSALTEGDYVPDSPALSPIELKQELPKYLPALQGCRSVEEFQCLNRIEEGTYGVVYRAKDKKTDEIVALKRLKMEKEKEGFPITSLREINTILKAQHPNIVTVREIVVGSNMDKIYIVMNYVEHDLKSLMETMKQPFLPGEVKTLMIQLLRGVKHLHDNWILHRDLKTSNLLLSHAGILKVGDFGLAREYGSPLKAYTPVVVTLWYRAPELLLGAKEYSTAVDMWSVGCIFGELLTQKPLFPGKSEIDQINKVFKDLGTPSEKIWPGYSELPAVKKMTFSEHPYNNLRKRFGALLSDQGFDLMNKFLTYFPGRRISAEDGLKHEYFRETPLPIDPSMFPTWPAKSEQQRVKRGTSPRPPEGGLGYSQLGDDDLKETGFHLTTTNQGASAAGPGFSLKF
Sequence of CDK16/Cyclin Y (Q00536 whole entry): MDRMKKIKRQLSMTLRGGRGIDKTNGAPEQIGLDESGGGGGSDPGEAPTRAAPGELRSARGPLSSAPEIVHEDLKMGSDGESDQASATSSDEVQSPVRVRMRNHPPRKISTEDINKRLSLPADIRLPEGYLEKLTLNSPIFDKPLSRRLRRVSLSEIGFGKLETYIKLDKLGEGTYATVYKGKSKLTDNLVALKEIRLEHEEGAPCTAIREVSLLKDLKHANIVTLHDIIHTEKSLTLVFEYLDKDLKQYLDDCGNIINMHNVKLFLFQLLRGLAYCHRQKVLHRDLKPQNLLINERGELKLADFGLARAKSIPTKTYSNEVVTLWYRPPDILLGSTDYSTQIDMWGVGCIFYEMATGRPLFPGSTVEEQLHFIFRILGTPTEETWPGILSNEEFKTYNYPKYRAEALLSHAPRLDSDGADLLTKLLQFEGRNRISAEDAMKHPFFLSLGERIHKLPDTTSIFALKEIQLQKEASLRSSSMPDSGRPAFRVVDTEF
Sequence of CDK16/Cyclin Y (Q8ND76 whole entry partner): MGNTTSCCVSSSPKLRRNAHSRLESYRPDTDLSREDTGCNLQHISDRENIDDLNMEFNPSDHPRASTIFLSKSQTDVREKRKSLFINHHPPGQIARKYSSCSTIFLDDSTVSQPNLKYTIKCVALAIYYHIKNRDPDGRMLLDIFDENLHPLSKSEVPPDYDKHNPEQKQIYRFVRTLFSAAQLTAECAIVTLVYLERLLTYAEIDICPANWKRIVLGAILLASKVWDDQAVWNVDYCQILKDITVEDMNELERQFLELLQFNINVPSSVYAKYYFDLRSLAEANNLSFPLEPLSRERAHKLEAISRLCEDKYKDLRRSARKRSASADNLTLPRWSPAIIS
Sequence of CDK10/Cyclin L2 (Q15131 whole entry): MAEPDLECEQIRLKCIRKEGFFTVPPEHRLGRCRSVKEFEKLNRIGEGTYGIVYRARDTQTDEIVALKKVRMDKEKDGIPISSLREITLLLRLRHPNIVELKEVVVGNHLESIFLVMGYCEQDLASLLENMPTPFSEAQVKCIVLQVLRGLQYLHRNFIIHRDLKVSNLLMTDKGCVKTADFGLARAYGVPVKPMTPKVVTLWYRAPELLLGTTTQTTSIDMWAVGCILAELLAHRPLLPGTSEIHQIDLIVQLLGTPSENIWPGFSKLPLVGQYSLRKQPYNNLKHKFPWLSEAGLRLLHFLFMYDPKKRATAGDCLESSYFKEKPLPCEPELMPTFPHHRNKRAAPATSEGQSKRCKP

## COCCN1CCN(Cc2ccc(-c3n[nH]c4c3C(=O)c3c(NC(=O)NN5CCOCC5)cccc3-4)cc2)CC1 [RGB286638]
[1]; average of experiments
  inhibition at 10 µM: 49.1%
[1]; independent experiment 1
  inhibition at 10 µM: 33.8%
[1]; independent experiment 2
  inhibition at 10 µM: 64.5%
[2]; average (± SEM where n=3)
  IC50: 6.6 nM
[2]; independent experiment 1
  IC50: 7.9 nM
  inhibition at 10 µM: 95.7%
[2]; independent experiment 2
  IC50: 5.3 nM
  inhibition at 10 µM: 92.1%
[2]; average of experiments
  inhibition at 10 µM: 93.9%
[3]; average of experiments
  inhibition at 10 µM: 84.4%
[3]; independent experiment 1
  inhibition at 10 µM: 71.7%
  IC50: 80 nM
[3]; independent experiment 2
  inhibition at 10 µM: 97.2%
  IC50: 70 nM
[3]; average (± SEM where n=3)
  IC50: 75 nM
[4]; average (± SEM where n=3)
  IC50: 5.2 nM
[4]; independent experiment 1
  IC50: 5.4 nM
  inhibition at 10 µM: 95.2%
[4]; independent experiment 2
  IC50: 5 nM
  inhibition at 10 µM: 92.3%
[5]; CDK10/L2 IC50 (nM), average (± SEM where n=3)
  IC50: 790 nM
[5]; CDK10/L2 IC50 (nM), independent experiment 1
  IC50: 790 nM
[5]; CDK10/L2 IC50 (nM), independent experiment 2
  IC50: 780 nM
[5]; IC50 for CDK/cyclin complexes, CDK10/L2, live HEK-293, 2 h, mean ± S.E.M. (n=3) or mean (n=2)
  IC50: 790 nM
[5]; average of experiments
  inhibition at 10 µM: 61.4%
[5]; independent experiment 1
  inhibition at 10 µM: 37.8%
[5]; independent experiment 2
  inhibition at 10 µM: 85.1%
[6]; average of experiments
  inhibition at 10 µM: 55.6%
[6]; independent experiment 1
  inhibition at 10 µM: 21.9%
[6]; independent experiment 2
  inhibition at 10 µM: 89.3%
[7]; independent experiment 1
  inhibition at 10 µM: 46%
[7]; independent experiment 2
  inhibition at 10 µM: 84.3%
[8]; average (± SEM where n=3)
  IC50: 10 nM
[8]; independent experiment 1
  IC50: 8.6 nM
  inhibition at 10 µM: 97.4%
[8]; independent experiment 2
  IC50: 11 nM
  inhibition at 10 µM: 102%
[8]; average of experiments
  inhibition at 10 µM: 99.6%
[9]; average of experiments
  inhibition at 10 µM: 58%
[9]; independent experiment 1
  inhibition at 10 µM: 32.8%
[9]; independent experiment 2
  inhibition at 10 µM: 83.3%
[10]; average of experiments
  inhibition at 10 µM: 32.6%
[10]; independent experiment 1
  inhibition at 10 µM: 19.9%
[10]; independent experiment 2
  inhibition at 10 µM: 45.2%
[11]; average of experiments
  inhibition at 10 µM: 47.5%
[11]; independent experiment 1
  inhibition at 10 µM: 30.7%
[11]; independent experiment 2
  inhibition at 10 µM: 64.4%
[12]; average of experiments
  inhibition at 10 µM: 87.9%
[12]; independent experiment 1
  inhibition at 10 µM: 79.8%
  IC50: 37 nM
[12]; independent experiment 2
  inhibition at 10 µM: 96%
  IC50: 41 nM
[12]; average (± SEM where n=3)
  IC50: 39 nM
[13]; average of experiments
  inhibition at 10 µM: 93.9%
[13]; independent experiment 1
  inhibition at 10 µM: 91%
[13]; independent experiment 2
  inhibition at 10 µM: 96.7%
[13]; LOG10([RGB-286638]) 0.045757 LOG10(µM)
  CDK7 Occupancy (%): 97.0886%
[13]; LOG10([RGB-286638]) 0.522879 LOG10(µM)
  CDK7 Occupancy (%): 96.5823%
